Reference: US20260027119A1, “INHIBITORS OF CALCIUM/CALMODULIN-DEPENDENT PROTEIN KINASE II AND THEIR USES” (priority 2022, published 2026)

Tests used:
[1] = test system: constitutively active human CaMKIIδ (cardiac isoform); assay: High-throughput CaMKAR screen in stable human cell line expressing CaMKAR and constitutively active human CaMKIIδ; assay type: cell-based
Text: (§1) FIG. 1A, FIG. 1B, FIG. 1C, and FIG. 1D show high-throughput screening to identify CaMKII inhibitors. A stable human cell line that expresses CaMKAR and constitutively active human CaMKIIδ (cardiac isoform) was developed. […] In these cells, the JHDLv3 library, which contains 4,475 compounds that are approved for human use, was screened (FIG. 1B). This primary screen identified 118 candidate compounds, which were subscreened using a CaMKAR in vitro assay (FIG. 1C). Validation of these hits in HEK293 cells and by a third-party laboratory led to five potent inhibitors.
(§2) In some embodiments, the presently disclosed subject matter provides a CaMKII activity biosensor, referred to herein as a CaMKII Activity Reporter (CaMKAR), that is tractable for high-throughput screens. Using this sensor, a library of compounds that are safe for human use (i.e., Food and Drug Administration (FDA)-, European Medicines Agency (EMA)-, China Food and Drug Administration (CFDA)-, and Pharmaceuticals and Medical Devices Agency (PMDA)-approved compounds) was screened for previously unidentified CaMKII inhibitors.

[2] = test system: constitutively active CaMKIIδ; assay: CaMKII inhibition in HEK293 cells expressing constitutively active CaMKIIδ; assay type: cell-based
Text: as §1

CaMKII [3] = assay: CaMKII activation in cardiomyocytes stimulated by field pacing (simulated tachycardia); assay type: cell-based
Text: FIG. 4A, FIG. 4B, and FIG. 4C show compounds that inhibit CaMKII in cardiomyocytes. CaMKII is stimulated in cardiac cells by simulating tachycardia with field pacing. […] When drug concentration is adjusted to match their respective maximum human plasma concentration, four out of the five compounds were able to ameliorate CaMKII (FIG. 4B, FIG. 4C).
as §2

CaMKII [4] = biological target: CaMKII (Homo sapiens, UniProt Q13557); assay: CaMKAR in vitro assay (subscreen of primary hits); assay type: biochemical
Sequence of CaMKII (Homo sapiens, UniProt Q13557) (Q13557 whole entry): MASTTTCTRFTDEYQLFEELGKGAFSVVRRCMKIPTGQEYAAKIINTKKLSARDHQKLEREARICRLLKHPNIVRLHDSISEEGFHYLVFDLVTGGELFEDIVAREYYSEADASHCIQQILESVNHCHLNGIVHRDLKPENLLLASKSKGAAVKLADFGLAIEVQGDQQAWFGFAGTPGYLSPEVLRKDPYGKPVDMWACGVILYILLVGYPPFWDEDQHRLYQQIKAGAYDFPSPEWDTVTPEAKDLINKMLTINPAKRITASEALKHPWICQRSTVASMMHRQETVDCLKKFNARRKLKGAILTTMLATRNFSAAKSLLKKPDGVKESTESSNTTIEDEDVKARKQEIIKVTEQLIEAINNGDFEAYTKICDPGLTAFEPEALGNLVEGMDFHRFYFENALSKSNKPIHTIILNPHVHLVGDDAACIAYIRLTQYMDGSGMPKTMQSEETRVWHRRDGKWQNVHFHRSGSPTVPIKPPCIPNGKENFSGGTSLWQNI
Text: as §1

CCS(=O)(=O)N1CC(CC#N)(n2cc(-c3ncnc4[nH]ccc34)cn2)C1 [Baricitinib]
Inhibition of cardiac CaMKII (CaMKIIδ) in human cells ([1]; human cells): potently inhibited
Potency of CaMKII inhibition relative to tool inhibitor AS100397 [2]: more potent
CaMKII activity in rat cardiac cells (CaMKII [3]): prevented CaMKII activity

CN[C@@H]1C[C@H]2O[C@@](C)([C@@H]1OC)n1c3ccccc3c3c4c(c5c6ccccc6n2c5c31)C(=O)NC4 [Staurosporine]
CaMKII inhibition reported by CaMKAR in primary screen cell line ([1]; stable human cell line expressing CaMKAR and constitutively active human CaMKIIδ): recovered
CaMKII inhibition in CaMKAR in vitro assay (CaMKII [4]): recovered
